Here are results for three molecules from patent US10870832B2, “Use of small molecules to enhance MAFA expression in pancreatic endocrine cells” (Janssen Biotech, Inc., priority 2014, dated 2020).

Each structure is given as a SMILES string.

What all share (assay type): cell-based, human
The test system of experiment [1] is MAFA expression. The experiment in a line: Stage 7 treatment, real-time PCR of MAFA (Example 6). The note with it: Stage 7, day 7, 2 μM in Stage 7 medium, H1-derived cells, mRNA. How it is done:
(§1) Cells of the human embryonic stem cell line H1 (WA01) were seeded as single cells at 1×10^5 cells/cm^2 on MATRIGEL™ (1:30 dilution) coated dishes in E8 media. At about 70 to 80% confluency, the cultures were washed in 1× incomplete DPBS followed by incubation with 1× TrypLET™ Express Enzyme for 3 to 5 minutes at 37° C. The released cells were rinsed with E8 and spun at 1000 rpm for 5 minutes. The resulting cell pellet was resuspended in E8 supplemented with 10 μM Y-27632 and the single cell suspension was seeded at approximately 1.3 to 1.5×10^5 cells/cm^2. The cultures were fed every day with E8 medium and differentiation, according to the following protocol, was initiated 48 hrs. following seeding resulting in an about 90% starting confluency.
(§2) Stage 6 cells were cultured for seven days in BLAR medium supplemented with a 1:100 dilution of ITS-X; 20 mM glucose (final); 1.5 g/L sodium bicarbonate; 2% FAF-BSA; 10 μg/ml of heparin, 10 μM ZnSO4, 1 μM T3 as 3,3′, 5-triiodo-L-thyronine sodium salt, 10 μM ALK5 inhibitor II, 1 mM N-acetyl cysteine. […]
(§3) At Stage 7, day 7, mRNA was collected and expression of MAFA, UCN3, PDX1, NKX6.1, insulin and G6PC2 evaluated as compared to undifferentiated human stem cells. […]
In general terms: Quantitative PCR measures a nucleic acid by following its amplification.

The test system of a further experiment is UCN3 expression. Description: Stage 7 treatment, real-time PCR of UCN3 (Example 6). The note with it: Stage 7, day 7, 2 μM in Stage 7 medium, H1-derived cells, mRNA. How it is done: as §1, §2, §3
The next experiment concerns G6PC2 expression. Description: Stage 7 treatment, real-time PCR of G6PC2 (Example 6). To be noted: Stage 7, day 7, 2 μM in Stage 7 medium, H1-derived cells, mRNA. How it is done:
as §1, §2, §3

For experiment [2], the system named is MAFA expression. Description: Stage 7 treatment, real-time PCR of MAFA (Example 7). To be noted: Stage 7, day 14, 2 μM R428 or 2-5 μM inhibitor substituted for R428, H1-derived cells, mRNA. How it is done: as §1, with “TrypLE™” for “TrypLET™”
Stage 6 cells were cultured for fourteen days in BLAR medium supplemented with a 1:100 dilution of ITS-X; 20 mM glucose (final); 1.5 g/L sodium bicarbonate; 2% FAF-BSA; 10 μg/ml of heparin, 10 μM ZnSO4, 1 μM T3 as 3,3′, 5-triiodo-L-thyronine sodium salt, 10 μM ALK5 inhibitor II, 1 mM N-acetyl cysteine. Some cultures also included one of 2 μM R428, 2-5 μM RSK inhibitor II (2-(3,5-Difluoro-4-hydroxy-anilino)-8-isopentyl-5,7-dimethyl-7H-pteridin-6-one) (EMD Millipore; Catalog No, 559286-5MG), 2-5 μM aurora kinase inhibitor II (EMD Millipore, or a combination of 2-5 μM RSK inhibitor II and 2-5 μM aurora kinase II inhibitor.
At Stage 7, day 14, mRNA was collected and compared to undifferentiated human stem cells.

Experiment [3] concerns MAFA expression. Description: Small molecule screen at Stage 6 or 7, real-time PCR (Example 2). To be noted: added at Stage 6, 1 μM, H1-derived cells at air-liquid interface. How it is done: Cells of the human embryonic stem cell line H1 (WA01) at passage 42 were seeded as single cells at 1×10^5 cells/cm^2 on MATRIGEL™ (1:30 dilution)-coated dishes in a media comprising of DMEM-F12, GlutaMAX™ (1:100 dilution), 0.25 mM ascorbic acid, 100 ng/ml of FGF2 (R & D systems, MN), 1 ng/ml of TGF-β, ITS-X (1:100 dilution), 2% FAF-BSA, and 20 ng/ml of IGF-1, supplemented with 10 μM of Y-27632. Forty-eight hours post-seeding, the cultures were washed in incomplete PBS (phosphate buffered saline without Mg or Ca) followed by incubation with 1× TrypLE™ Express Enzyme (Life Science; Catalog No. 14190) for 3 to 5 minutes at 37° C. The released cells were rinsed with DMEM-F12 and spun at 1000 rpm for 5 minutes. The resulting cell pellet was resuspended in DMEM-F12 supplemented with 10 μM Y-27632, 1× GlutaMAX™, 0.25 mM ascorbic acid, 100 ng/ml FGF2, 1 ng/ml TGF-β, ITS-X at a 1:100 dilution, 2% FAF-BSA and 20 ng/ml of IGF-1 and the single cell suspension was seeded at approximately 1.3 to 1.5×10^5 cells/cm^2. The cultures were fed every day with medium and differentiation, according to the following protocol, was initiated 48 hours following seeding resulting in an about 90% starting confluency. […]
At Stages 6 or 7, various small molecules were added and their effect was evaluated by real-time PCR.

On to `COc1cc2ncnc(Nc3ccc(NC(=O)c4ccccc4)cc3)c2cc1OC` [aurora kinase inhibitor II, 4-(4′-Benzamidoanilino)-6,7-dimethoxyquinazoline], for which the MAFA expression entry with MAFA expression [1] is recorded as “increase in MAFA expression”; in the experiment on MAFA expression [2] it was “restored MAFA expression”. The UCN3 expression result in the experiment with UCN3 expression was “maintenance of UCN3 and G6PC2 expression”. In the experiment with G6PC2 expression, the G6PC2 expression entry was “maintenance of UCN3 and G6PC2 expression”.
With `CC(C)N(C[C@H]1O[C@@H](n2cnc3c(N)ncnc32)[C@H](O)[C@@H]1O)[C@H]1C[C@@H](CCc2nc3ccc(C(C)(C)C)cc3[nH]2)C1` [EPZ-5676, 9H-Purin-6-amine, 9-[5-deoxy-5-[[cis-3-[2-[6-(1,1-dimethylethyl)-1H-benzimidazol-2-yl]ethyl]cyclobutyl](1-methylethyl)amino]-β-D-ribofuranosyl]-], in the experiment on MAFA expression [3], the “expression of MAFA as compared to untreated cultures” value was “significantly upregulated”.
Consider `CC(C)CCN1c2nc(Nc3cc(F)c(O)c(F)c3)ncc2N(C)C(=O)C1C` (racemic) [RSK inhibitor, 2-(3,5-Difluoro-4-hydroxy-anilino)-8-isopentyl-5,7-dimethyl-7H-pteridin-6-one], for which the MAFA expression result with MAFA expression [2] is listed as “restored MAFA expression”.
